# Assay results: patent publication US7351837B1, “Thermally cleavable surfactants without deprotonation” (Sandia Corporation, priority 2004, dated 2008)
# What was measured:
# Format in all cases: physicochemical
# [1] = retro-DA degradation via surface tension; conditions: 10 mM aqueous solution
# Experimental: The surfactants of the invention undergo the retro-DA reaction after exposure to elevated temperatures. […] Data were recorded for all experiments via a computer interface using the […]3000 version 5.3 software. […] Additional measurements to determine the effect of temperature on the rates of surfactant dissociation and loss of surface active properties were conducted on 10 mM solutions of surfactant 3. The data shown in FIG. 3 clearly indicate that the temperature at which the samples are elevated to has a dramatic impact on the rate at which the surface active properties are lost in these solutions. […] At the lowest temperature monitored, 55° C., it takes over 30 hours of exposure to eliminate surface activity. The data has been fit with a logistic 4-parameter algorithm using SIGMAPLOT® (available from Systat Software, Inc., Richmond, Calif.). […] The effective control of the surface active properties of the system is envisioned to be accomplished by manipulating one or any combination of these parameters. It should also be noted that all of the surface tension measurements of the cleaved samples were taken after the samples had cooled to ambient conditions, and are convincing evidence that the dissociation accompanying the retro DA is irreversible in micelles.
# [2] = retro-DA degradation via 1H NMR; conditions: 65° C., 10 mM aqueous sample, isothermal
# Excerpt: Percent degradation was tracked by recording the decrease in the integral value for the bridge head proton of the DA adduct located at 5.02 ppm. […] It is important to note that the percent degradation of surfactant 5 over various temperatures is not necessarily linear. This is a result of the Keq for the reversible DA reaction with DA adduct formation/stability dominating at lower temperatures.
# [3] = critical micelle concentration by dynamic surface tension (maximum bubble pressure method); conditions: aqueous solution
# Experimental: The dynamic surface tension measurements were conducted using a SENSADYNE® QC3000 dynamic surface tensiometer (available from the SENSADYNE® Instruments Division of the Chem-Dyne Research Corporation, Mesa, Ariz.) that utilizes the maximum bubble pressure method. The fundamental operating principles and theoretical considerations of this method are explained in detail elsewhere, and a brief summary only is given here. Two glass probes with different orifice diameters (0.5 and 4.0 mm) were submerged in an aqueous surfactant solution and nitrogen was bubbled through the samples. Dry nitrogen was used as the bubble source gas and was delivered to the instrument at 50 psi. The instrument was operated at a bubble frequency of 0.5 Hz to approximate equilibrium surface tension values for each sample. The differential pressure signal generated by bubble formation is related to the interfacial surface tension of the liquid and gas. Surface tension calibration was carried out by measuring the surface tension of deionized water and ethanol and comparing to known literature values. Solution temperature was monitored with a calibrated thermistor (± 0.1° C.) attached to the orifice probes. Instrumental calibration was conducted for every change in experimental conditions and after prolonged periods of instrumental quiescence. All experiments were conducted at 25.0±0.2° C. unless otherwise noted. […]
structure (smiles),measurement,setting,value
"CCCCCCCCCCCCC12C=CC(O1)C1C(=O)N(c3ccc(S(=O)(=O)[O-])cc3)C(=O)C12.[Na+] (stereo not drawn) [surfactant 3, exo-4-Dodecyl-7-oxabicyclo[2.2.1]hept-5-ene-2,3-dicarboxy-N-(4-sodiumsulfophenyl)imide]",time of exposure to eliminate surface activity,[1]; 55° C.,over 30 hours
same,time of exposure to loss of all surface activity (surface tension is that of water),[1]; 95° C.,≤ 1 h
same,time of heating to complete degradation (1H NMR),[2],about 10 hours
same,cmc by dynamic surface tension measurements,"[3]; 25.0±0.2° C., bubble frequency 0.5 Hz",5.1 mM
same,second inflection point of surface tension vs concentration (micelles begin to form),[3]; FIG. 2,~5 mM
